Here are results for one compound from patent publication US20240358693A1, “METHODS OF TREATING PAIN” (Aisa Pharma, Inc., priority 2023, published 2024).

In data set [1] the test system is participants with SSc-RP. The experiment in a line: Average daily Raynaud's Condition Score (RCS). The class given is in vivo, human. Also on record: key to Average Daily RCS, Mean / Average Daily RCS, Median / Average Daily RCS, Change from Baseline, Mean / Average Daily RCS, Change from Baseline, Median / Average daily RCS, Baseline, Mean / Average daily RCS, Baseline, Median / Mean RCS at baseline: RCS rated on a 0-10 cm VAS scale. The conditions noted are these: ITT Part A. From the text: The RCS is based on how much difficulty participants had with Raynaud's today, how many attacks the participant had, and how long they lasted. In addition participants were and will be asked to consider how much pain, numbness, or other symptoms the Raynaud's caused in fingers (including painful sores), and how much the Raynaud's along affected the use of hand today (VAS 0-10 cm scale).
The absolute change in average daily RCS from baseline to the end of each dosing period was and will be a secondary outcome variable. The sponsor-developed participant-informed diary has been and will be used to record data. The average daily RCS is defined as the total RCS divided by the number of days with available diary data of each dosing period. Total RCS during screening period divided by the number of days with available data will be used as baseline for the analysis of all periods. If there are multiple daily RCS scores, the latest daily RCS will be used. The variable will be calculated similar to frequency data as before.

In data set [2] the test system is participants with SSc-RP. The experiment in a line: Adverse events and serious adverse events (safety, tolerability). Type of data set: in vivo. The conditions noted are these: in vivo. From the text: An AE is any event, side effect, or other untoward medical occurrence that occurs in conjunction with the use of a medicinal product in humans, whether or not considered to have a causal relationship to this treatment.
Severity of AEs will be graded by the Investigator as one of: • Mild (Grade 1): A type of AE that is usually transient and may require only minimal treatment or therapeutic intervention.
An SAE is an AE occurring during any study phase (i.e., baseline, treatment, washout, or follow-up), and at any dose of the study drug (active or placebo), that fulfills one or more of the following: • Results in death • It is immediately life-threatening • It requires in participant hospitalization or prolongation of existing hospitalization • It results in persistent or significant disability or incapacity • Results in a congenital abnormality or birth defect • It is an important medical event that may jeopardize the participant or may require medical intervention to prevent one of the outcomes listed above.
Treatment-emergent AEs (TEAEs) are defined as AEs that occur or worsen after the dose of study drug. If the timing of the start of an AE could not be determined unambiguously from the start or end dates provided, it will be assumed to be a TEAE. An AE is considered related if the relationship to either of the study drug has been indicated as possibly or probably or definite related by the investigator. An AE leading to study withdrawal is defined as an AE that cause a subject early terminated from the study. AEs will be identified as emerging in the following parts: • TEAEs for Part A will be those that started during Part A (i.e., from the first dose in Part A to end of follow up of Part A). • TEAEs for Part B will be those that started during Part B (i.e., from the first dose in Part B to end of follow-up of Part B).
Adverse events were coded using the most current version of the MedDRA® Version 22.0 or higher. The analysis of AEs was based on the concept of treatment emergent AEs. Treatment emergent AEs were tabulated by treatment group and included the number of participants for whom the event occurred, the severity, and relationship to study drug. Treatment emergent AEs (TEAEs) leading to discontinuation and SAEs with onset after the start of study drug were also summarized. All AEs and SAEs (including those with onset or worsening before the start of study drug) through the end of the study were listed.

The mark [3] stands for this setting: excluding outliers, dose Cilnidipine 10 mg, Tadalafil 5 mg, or 10 mg + 5 mg.

For the compound `CN1CC(=O)N2[C@H](c3ccc4c(c3)OCO4)c3[nH]c4ccccc4c3C[C@@H]2C1=O` [Tadalafil, tadalafil], in data set [1] (setting [3]), the “Average Daily RCS (dosing period), Mean” value came to 4.46; the “Average Daily RCS (dosing period), Median” value amounted to 4.46; the “Average Daily RCS, Change from Baseline, Mean” value is given as −1.58; the “Average Daily RCS, Change from Baseline, Median” value is on record as −1.58. For the same compound, in data set [1] (setting [3]), the “Average Daily RCS, Percent Change from Baseline, Mean” value was −26.18%; the “Average Daily RCS, Percent Change from Baseline, Median” value is on record as −26.18%; the “Average daily RCS, Baseline, Mean” value came out at 6.04; the “Average daily RCS, Baseline, Median” value is on record as 6.04. In data set [1] (Tadalafil 5 mg), the “Average Daily RCS, Change from Baseline, Mean” value is recorded as −0.67; the “Average Daily RCS, Change from Baseline, Median” value is listed as −0.67; the “Average Daily RCS, Percent Change from Baseline, Mean” value is reported as −11.76%; the “Average Daily RCS, Percent Change from Baseline, Median” value was −11.76%. Moreover, in data set [1] (Tadalafil 5 mg, dosing period), the “Average Daily RCS, Mean” value is recorded as 7.05 and the “Average Daily RCS, Median” value is 7.05. In addition, in data set [2], the “Safety: worst AE by group” value is listed as “Worst AE in tadalafil”.
